Test results as given in patent US20160108098A1, “THERAPEUTIC PEPTIDES” (GLAXOSMITHKLINE INTELLECTUAL PROPERTY DEVELOPMENT LIMITED, priority 2013, published 2016).
Where no end group is shown, it is not given here.

How the values were obtained:
[1] = cumulative food intake, lean mice (Model A), BioDaQ system; type: in vivo; details: lean C57BL/6 mice, 1 mg/kg subcutaneously, cumulative food intake after 6 h, relative to vehicle controls
Experimental: Cumulative food intake after 6 h was determined for the PYY analogs in either lean (Model A) or diet-induced obese (DIO) (Model B) C57BL/6 mice in a BioDaQ system for continuous monitoring of food intake (Research Diets Inc., New Brunswick, N.J.). […] Mice were placed singly into the BioDaQ cages and acclimatized for a minimum of 6 days and were allowed ad libitum access to food and water. Approximately 1 hour prior to lights-out, animals were dosed subcutaneously with either vehicle (20 mM Acetate buffer, pH 4.9 or 20% DMSO in water) or analogs dissolved in vehicle (1 mg/kg) (8 animals per group). Once all animals have been dosed, feeder gates were opened providing ad-libitum access to food. Continuous food intake was monitored and collected for 15 hours. […] P-values<0.05 were considered to indicate a significant difference between treatment groups.

[2] = biological target: T1, human Neuropeptide Y receptor type 2 (Homo sapiens, UniProt P49146); assay: melanophore assay, potency at the human Neuropeptide Y receptor type 2; type: cell-based; details: read-out: hNPY Y2 pEC50 (converted)
T1 construct: expressed in transfected cells; host or cells: melanophores; own knowledge: in the cited Jayawickreme protocol these are Xenopus laevis melanophores transfected with the receptor
T1 sequence (P49146 1-381): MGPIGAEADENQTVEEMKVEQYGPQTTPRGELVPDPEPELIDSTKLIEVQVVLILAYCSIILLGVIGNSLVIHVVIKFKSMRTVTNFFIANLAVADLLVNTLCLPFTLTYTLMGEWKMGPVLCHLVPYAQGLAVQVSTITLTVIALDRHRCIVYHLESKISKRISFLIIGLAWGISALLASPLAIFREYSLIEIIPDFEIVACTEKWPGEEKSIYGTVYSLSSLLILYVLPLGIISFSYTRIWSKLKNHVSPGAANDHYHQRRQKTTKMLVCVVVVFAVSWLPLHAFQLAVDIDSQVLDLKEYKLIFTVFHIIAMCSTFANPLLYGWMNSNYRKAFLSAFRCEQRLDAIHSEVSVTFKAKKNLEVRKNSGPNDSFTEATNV

Compound | % change in food intake vs vehicle, model A [1] [%] | EC50 [2] [nM]
PEPEHPGCDASPEDQNKYHASLRKYLNWVTRQRY-NH2 [Peptide 10] | -21 | 
PKPVAPGCDASPAELNRQYSDLRNYWNLVTRQRY-NH2 [Peptide 15] | -17 | 1.26
H-IKPEAPLSKQLEEEAVRYYASLRHYLNLVTRQRY-NH2 [Peptide 2] | -12 | 2.51
CC(C)C[C@H](NC(=O)[C@H](CC(=O)O)NC(=O)[C@H](C)NC(=O)[C@H](Cc1ccc(O)cc1)NC(=O)[C@H](Cc1ccc(O)cc1)NC(=O)[C@H](CCCNC(=N)N)NC(=O)[C@H](CC(N)=O)NC(=O)[C@H](Cc1c[nH]c2ccccc12)NC(=O)[C@H](CCC(=O)O)NC(=O)[C@H](CCC(=O)O)NC(=O)[C@@H]1CCCN1C(=O)[C@H](CO)NC(=O)[C@H](C)NC(=O)[C@H](CC(=O)O)NC(=O)[C@H](CCCCN)NC(=O)CNC(=O)[C@@H]1CCCN1C(=O)[C@H](C)NC(=O)[C@H](CCC(=O)O)NC(=O)[C@@H]1CCCN1C(=O)[C@H](CCCCN)NC(=O)[C@@H]1CCCN1)C(=O)N[C@@H](CCCNC(=N)N)C(=O)N[C@@H](CCCCN)C(=O)N[C@@H](Cc1ccc(O)cc1)C(=O)N[C@@H](CC(C)C)C(=O)N[C@@H](CC(N)=O)C(=O)N[C@@H](Cc1c[nH]c2ccccc12)C(=O)N[C@H](C(=O)N[C@H](C(=O)N[C@@H](CCCNC(=N)N)C(=O)N[C@@H](CCC(N)=O)C(=O)N[C@@H](CCCNC(=N)N)C(=O)N[C@@H](Cc1ccc(O)cc1)C(N)=O)[C@@H](C)O)C(C)C [Example 8] | −74 | 0.02
CC[C@H](C)[C@H](N)C(=O)N[C@@H](CCCCN)C(=O)N1CCC[C@H]1C(=O)N1CCC[C@H]1C(=O)N[C@@H](Cc1ccc(O)cc1)C(=O)N1CCC[C@H]1C(=O)NCC(=O)N[C@@H](CS)C(=O)N[C@@H](CC(=O)O)C(=O)N[C@@H](C)C(=O)N[C@@H](CO)C(=O)N1CCC[C@H]1C(=O)N[C@@H](CCC(=O)O)C(=O)N[C@@H](CCC(=O)O)C(=O)N[C@@H](CCC(N)=O)C(=O)N[C@@H](CC(N)=O)C(=O)N[C@@H](CCCCN)C(=O)N[C@@H](Cc1ccc(O)cc1)C(=O)N[C@@H](Cc1ccc(O)cc1)C(=O)N[C@@H](C)C(=O)N[C@@H](CO)C(=O)N[C@@H](CC(C)C)C(=O)N[C@@H](CCCNC(=N)N)C(=O)N[C@@H](C)C(=O)N[C@@H](Cc1ccc(O)cc1)C(=O)N[C@@H](Cc1c[nH]c2ccccc12)C(=O)N[C@@H](CC(N)=O)C(=O)N[C@@H](CC(C)C)C(=O)N[C@H](C(=O)N[C@H](C(=O)N[C@@H](CCCNC(=N)N)C(=O)N[C@@H](CCC(N)=O)C(=O)N[C@@H](CCCNC(=N)N)C(=O)N[C@@H](Cc1ccc(O)cc1)C(N)=O)[C@@H](C)O)C(C)C [Peptide 8] | -19 | 0.501
H-PKPEAPGCDASPEEWNRYYASLRKYLNWVTRQNY-NH2 [Peptide 1] | 5 | 12.6
H-PQPESPEGNASPEDWACYHAAVRHYVNLITRQRY-NH2 [Peptide 18] | -17 | 
CC(C)C[C@H](NC(=O)[C@H](CO)NC(=O)[C@H](C)NC(=O)[C@H](Cc1ccc(O)cc1)NC(=O)[C@H](Cc1ccc(O)cc1)NC(=O)[C@H](CCCNC(=N)N)NC(=O)[C@H](CC(N)=O)NC(=O)[C@H](Cc1c[nH]c2ccccc12)NC(=O)[C@H](CCC(=O)O)NC(=O)[C@H](CCC(=O)O)NC(=O)[C@@H]1CCCN1C(=O)[C@H](CO)NC(=O)[C@H](C)NC(=O)[C@H](CC(=O)O)NC(=O)[C@H](CCCCN)NC(=O)CNC(=O)[C@@H]1CCCN1C(=O)[C@H](C)NC(=O)[C@H](CCC(=O)O)NC(=O)[C@@H]1CCCN1C(=O)[C@H](CCCCN)NC(=O)[C@@H]1CCCN1)C(=O)N[C@@H](CCCNC(=N)N)C(=O)N[C@@H](CCCCN)C(=O)N[C@@H](Cc1ccc(O)cc1)C(=O)N[C@@H](CC(C)C)C(=O)N[C@@H](CC(N)=O)C(=O)N[C@@H](Cc1c[nH]c2ccccc12)C(=O)N[C@@H](CC(C)C)C(=O)N[C@H](C(=O)N[C@@H](CCCNC(=N)N)C(=O)N[C@@H](CCC(N)=O)C(=O)N[C@@H](CCCNC(=N)N)C(=O)N[C@@H](Cc1ccc(O)cc1)C(N)=O)[C@@H](C)O [Example 6] | −88 | 0.0794
H-PKPEAPLSKQLEEEAVRYYASLRHYLNLVTRQRY-NH2 [Peptide 21] | -2 | 2
PKPEAPGCDASPEEWNRYYASLRKYLNWVTRQHY-NH2 [Peptide 14] | 24 | 6.31
CC(C)C[C@H](NC(=O)[C@H](CO)NC(=O)[C@H](C)NC(=O)[C@H](Cc1ccc(O)cc1)NC(=O)[C@H](Cc1ccc(O)cc1)NC(=O)[C@H](CCCNC(=N)N)NC(=O)[C@H](CC(N)=O)NC(=O)[C@H](CC(C)C)NC(=O)[C@H](CCC(=O)O)NC(=O)[C@H](CCC(=O)O)NC(=O)[C@@H]1CCCN1C(=O)[C@H](CO)NC(=O)[C@H](C)NC(=O)[C@H](CC(=O)O)NC(=O)[C@H](CCCCN)NC(=O)CNC(=O)[C@@H]1CCCN1C(=O)[C@H](C)NC(=O)[C@H](CCC(=O)O)NC(=O)[C@@H]1CCCN1C(=O)[C@H](CCCCN)NC(=O)[C@@H]1CCCN1)C(=O)N[C@@H](CCCNC(=N)N)C(=O)N[C@@H](CCCCN)C(=O)N[C@@H](Cc1ccc(O)cc1)C(=O)N[C@@H](CC(C)C)C(=O)N[C@@H](CC(N)=O)C(=O)N[C@@H](Cc1c[nH]c2ccccc12)C(=O)N[C@H](C(=O)N[C@H](C(=O)N[C@@H](CCCNC(=N)N)C(=O)N[C@@H](CCC(N)=O)C(=O)N[C@@H](CCCNC(=N)N)C(=O)N[C@@H](Cc1ccc(O)cc1)C(N)=O)[C@@H](C)O)C(C)C [Example 31] | −59 | 0.158
CC(C)C[C@H](NC(=O)[C@H](CO)NC(=O)[C@H](C)NC(=O)[C@H](Cc1ccc(O)cc1)NC(=O)[C@H](Cc1ccc(O)cc1)NC(=O)[C@H](CCCNC(=N)N)NC(=O)[C@H](CC(N)=O)NC(=O)[C@H](Cc1c[nH]c2ccccc12)NC(=O)[C@H](CCC(=O)O)NC(=O)[C@H](CCC(=O)O)NC(=O)[C@@H]1CCCN1C(=O)[C@H](CO)NC(=O)[C@H](C)NC(=O)[C@H](CC(=O)O)NC(=O)[C@H](CCCCN)NC(=O)CNC(=O)[C@@H]1CCCN1C(=O)[C@H](C)NC(=O)[C@H](CCC(=O)O)NC(=O)[C@@H]1CCCN1C(=O)[C@H](CCCCN)NC(=O)[C@@H]1CCCN1)C(=O)N[C@@H](CCCNC(=N)N)C(=O)N[C@@H](CCCCN)C(=O)N[C@@H](Cc1ccc(O)cc1)C(=O)N[C@@H](CC(C)C)C(=O)N[C@@H](CC(N)=O)C(=O)N[C@@H](Cc1c[nH]c2ccccc12)C(=O)N[C@H](C(=O)N[C@H](C(=O)N[C@@H](CCCNC(=N)N)C(=O)N[C@@H](CCC(N)=O)C(=O)N[C@@H](CCCNC(=N)N)C(=O)N[C@@H](Cc1ccc(O)cc1)C(N)=O)[C@@H](C)O)C(C)C [Example 10] | −88 | 0.0398
CC(C)C[C@H](NC(=O)[C@H](CC(=O)O)NC(=O)[C@H](C)NC(=O)[C@H](Cc1ccc(O)cc1)NC(=O)[C@H](Cc1ccc(O)cc1)NC(=O)[C@H](CCCNC(=N)N)NC(=O)[C@H](CC(N)=O)NC(=O)[C@H](Cc1c[nH]c2ccccc12)NC(=O)[C@H](CCC(=O)O)NC(=O)[C@H](CCC(=O)O)NC(=O)[C@@H]1CCCN1C(=O)[C@H](CO)NC(=O)[C@H](C)NC(=O)[C@H](CC(=O)O)NC(=O)[C@H](CCCCN)NC(=O)CNC(=O)[C@@H]1CCCN1C(=O)[C@H](C)NC(=O)[C@H](CCC(=O)O)NC(=O)[C@@H]1CCCN1C(=O)[C@H](CCCCN)NC(=O)[C@@H]1CCCN1)C(=O)N[C@@H](CCCNC(=N)N)C(=O)N[C@@H](CCCCN)C(=O)N[C@@H](Cc1ccc(O)cc1)C(=O)N[C@@H](CC(C)C)C(=O)N[C@@H](CC(N)=O)C(=O)N[C@@H](Cc1c[nH]c2ccccc12)C(=O)N[C@@H](CC(C)C)C(=O)N[C@H](C(=O)N[C@@H](CCCNC(=N)N)C(=O)N[C@@H](CCC(N)=O)C(=O)N[C@@H](CCCNC(=N)N)C(=O)N[C@@H](Cc1ccc(O)cc1)C(N)=O)[C@@H](C)O [Example 4] | −83 | 
H-PKPEAPGEDASPKEWNRYYASLRKYLNWVTRQRY-NH2 [Peptide 3] | -30 | 0.631
CC(C)C[C@H](NC(=O)[C@H](CO)NC(=O)[C@H](C)NC(=O)[C@H](Cc1ccc(O)cc1)NC(=O)[C@H](Cc1ccc(O)cc1)NC(=O)[C@H](CCCNC(=N)N)NC(=O)[C@H](CC(N)=O)NC(=O)[C@H](CC(C)C)NC(=O)[C@H](CCC(=O)O)NC(=O)[C@H](CCC(=O)O)NC(=O)[C@@H]1CCCN1C(=O)[C@H](CO)NC(=O)[C@H](C)NC(=O)[C@H](CC(=O)O)NC(=O)[C@H](CCCCN)NC(=O)CNC(=O)[C@@H]1CCCN1C(=O)[C@H](C)NC(=O)[C@H](CCC(=O)O)NC(=O)[C@@H]1CCCN1C(=O)[C@H](CCCCN)NC(=O)[C@@H]1CCCN1)C(=O)N[C@@H](CCCNC(=N)N)C(=O)N[C@@H](CCCCN)C(=O)N[C@@H](Cc1ccc(O)cc1)C(=O)N[C@@H](CC(C)C)C(=O)N[C@@H](CC(N)=O)C(=O)N[C@@H](Cc1c[nH]c2ccccc12)C(=O)N[C@@H](CC(C)C)C(=O)N[C@H](C(=O)N[C@@H](CCCNC(=N)N)C(=O)N[C@@H](CCC(N)=O)C(=O)N[C@@H](CCCNC(=N)N)C(=O)N[C@@H](Cc1ccc(O)cc1)C(N)=O)[C@@H](C)O [Example 2] | −50 | 0.158
